Test results taken from paper PMC11855478, “Bicyclic N,S-Acetals Containing Fused Cysteine-Amide System as New Heterocyclic Class Targeting Human Farnesyltransferase (FTase-h)” (International Journal of Molecular Sciences, 2025).

Columns and labels:
SF-539 (CNS Cancer) = assay: NCI one dose, SF-539; format: cell-based, human; details: SF-539, 1.00E-5 Molar one dose
Description: (§1) 3.4. Cell Proliferation Assay
(§2) Selected compounds were tested on a panel of 60 human cancer cell lines at the National Cancer Institute (NCI), Germantown, MD, USA. The cytotoxicity studies were conducted using a 48 h exposure protocol using the sulfo-rhodamine B assay.

SK-MEL-5 (Melanoma) = assay: NCI one dose, SK-MEL-5; format: cell-based, human; details: SK-MEL-5, 1.00E-5 Molar one dose
Description: as §1, §2

ACHN (Renal Cancer) = assay: NCI one dose, ACHN; format: cell-based, human; details: 1.00E-5 Molar one dose
Description: as §1, §2

UACC-62 (Melanoma) = assay: NCI one dose, UACC-62; format: cell-based, human; details: UACC-62, 1.00E-5 Molar one dose
Description: as §1, §2

K-562 leukaemia cells = assay: NCI one dose, K-562; format: cell-based, human; details: for Growth Percent: K-562, 1.00E-5 Molar one dose
Description: as §1, §2

[1] = test system: EKVX (Non-Small Cell Lung Cancer); assay: NCI one dose, EKVX; format: cell-based, human; details: 1.00E-5 Molar one dose
Description: as §1, §2

HCT-15 (Colon Cancer) = assay: NCI one dose, HCT-15; format: cell-based, human; details: HCT-15, 1.00E-5 Molar one dose
Description: as §1, §2

OVCAR-8 (Ovarian Cancer) = assay: NCI one dose, OVCAR-8; format: cell-based, human; details: OVCAR-8, 1.00E-5 Molar one dose
Description: as §1, §2

[2] = test system: A549/ATCC (Non-Small Cell Lung Cancer); assay: NCI one dose, A549/ATCC; format: cell-based, human; details: 1.00E-5 Molar one dose
Description: as §1, §2

[3] = test system: NCI-H322M (Non-Small Cell Lung Cancer); assay: NCI one dose, NCI-H322M; format: cell-based, human; details: 1.00E-5 Molar one dose
Description: as §1, §2

OVCAR-5 (Ovarian Cancer) = assay: NCI one dose, OVCAR-5; format: cell-based, human; details: OVCAR-5, 1.00E-5 Molar one dose
Description: as §1, §2

HT29 (Colon Cancer) = assay: NCI one dose, HT29; format: cell-based, human; details: HT29, 1.00E-5 Molar one dose
Description: as §1, §2

M14 (Melanoma) = assay: NCI one dose, M14; format: cell-based, human; details: M14, 1.00E-5 Molar one dose
Description: as §1, §2

MALME-3M (Melanoma) = assay: NCI one dose, MALME-3M; format: cell-based, human; details: 1.00E-5 Molar one dose
Description: as §1, §2

786-0 (Renal Cancer) = assay: NCI one dose, 786-0; format: cell-based, human; details: 786-0, 1.00E-5 Molar one dose
Description: as §1, §2

U251 (CNS Cancer) = assay: NCI one dose, U251; format: cell-based, human; details: U251, 1.00E-5 Molar one dose
Description: as §1, §2

HCT-116 (Colon Cancer) = assay: NCI one dose, HCT-116; format: cell-based, human; details: HCT-116, 1.00E-5 Molar one dose
Description: as §1, §2

[4] = test system: panel of 60 human cancer cell lines; assay: NCI 60 cell panel one dose screen (whole panel); format: cell-based; parameters: Delta (One Dose Mean Graph): unit not given here; details: 1.00E-5 Molar one dose; for Range (One Dose Mean Graph): in % (unit assumed); for Mean Growth Percent: mean over tested cell lines
Description: as §1
Selected compounds were tested on a panel of 60 human cancer cell lines at the National Cancer Institute (NCI), Germantown, MD, USA. The cytotoxicity studies were conducted using a 48 h exposure protocol using the sulfo-rhodamine B assay. […]
X. NCI One Dose Mean Graph of sulfides 4a(A -J) and 4b(A-J)
The entire series of sulfides regrouping twenty synthesized FTI-candidates (4aA-J, 4bA-J) were selected by the National Cancer Institute (NCI) for evaluation of their antiproliferative activity against 60 cancer cell lines (see the followings twenty pages for full evaluation reports). […]
inhibiting 36% of the NCI-H522 cells. Such difference between IC50 on human FTase in the nanomolar range and IC50 on cancer cell growth in the micromolar range is characteristic to potent FTIs and was reported previously on different series of compounds (see for example ref erence in the references part […]
Of interest, none of the tested compounds at a high single dose (10 µM) in the full NCI 60 cell panel has shown a cytotoxic profile. […]
inhibitory potential on FTase raise good hope for further investigation of these series as agents fighting

[5] = test system: MDA-MB-231/ATCC (Breast Cancer); assay: NCI one dose, MDA-MB-231/ATCC; format: cell-based, human; details: 1.00E-5 Molar one dose
Description: as §1, §2

[6] = test system: NCI-H23 (Non-Small Cell Lung Cancer); assay: NCI one dose, NCI-H23; format: cell-based, human; details: NCI-H23, 1.00E-5 Molar one dose
Description: as §1, §2

SF-295 (CNS Cancer) = assay: NCI one dose, SF-295; format: cell-based, human; details: SF-295, 1.00E-5 Molar one dose
Description: as §1, §2

OVCAR-4 (Ovarian Cancer) = assay: NCI one dose, OVCAR-4; format: cell-based, human; details: OVCAR-4, 1.00E-5 Molar one dose
Description: as §1, §2

RXF 393 (Renal Cancer) = assay: NCI one dose, RXF 393; format: cell-based, human; details: RXF 393, 1.00E-5 Molar one dose
Description: as §1, §2

[7] = test system: HOP-92 (Non-Small Cell Lung Cancer); assay: NCI one dose, HOP-92; format: cell-based, human; details: HOP-92, 1.00E-5 Molar one dose
Description: as §1, §2

IGROV1 (Ovarian Cancer) = assay: NCI one dose, IGROV1; format: cell-based, human; details: IGROV1, 1.00E-5 Molar one dose
Description: as §1, §2

SNB-19 (CNS Cancer) = assay: NCI one dose, SNB-19; format: cell-based, human; details: SNB-19, 1.00E-5 Molar one dose
Description: as §1, §2

SR (Leukemia) = assay: NCI one dose, SR; format: cell-based, human; details: 1.00E-5 Molar one dose
Description: as §1, §2

MOLT-4 (Leukemia) = assay: NCI one dose, MOLT-4; format: cell-based, human; details: MOLT-4, 1.00E-5 Molar one dose
Description: as §1, §2

A498 (Renal Cancer) = assay: NCI one dose, A498; format: cell-based, human; details: A498, 1.00E-5 Molar one dose
Description: as §1, §2

CCRF-CEM (Leukemia) = assay: NCI one dose, CCRF-CEM; format: cell-based, human; details: 1.00E-5 Molar one dose
Description: as §1, §2

SK-MEL-2 (Melanoma) = assay: NCI one dose, SK-MEL-2; format: cell-based, human; details: SK-MEL-2, 1.00E-5 Molar one dose
Description: as §1, §2

HS 578T (Breast Cancer) = assay: NCI one dose, HS 578T; format: cell-based, human; details: 1.00E-5 Molar one dose
Description: as §1, §2

COLO 205 (Colon Cancer) = assay: NCI one dose, COLO 205; format: cell-based, human; details: COLO 205, 1.00E-5 Molar one dose
Description: as §1, §2

| Compound | Growth Percent (SF-539 (CNS Cancer)) [%] | Growth Percent (SK-MEL-5 (Melanoma)) [%] | Growth Percent (ACHN (Renal Cancer)) [%] | Growth Percent (UACC-62 (Melanoma)) [%] | Growth Percent (K-562 leukaemia cells) [%] | Growth Percent [1] [%] | Growth Percent (HCT-15 (Colon Cancer)) [%] | Growth Percent (OVCAR-8 (Ovarian Cancer)) [%] | Growth Percent [2] [%] | Growth Percent [3] [%] | Growth Percent (OVCAR-5 (Ovarian Cancer)) [%] | Growth Percent (HT29 (Colon Cancer)) [%] | Growth Percent (M14 (Melanoma)) [%] | Growth Percent (MALME-3M (Melanoma)) [%] | Growth Percent (786-0 (Renal Cancer)) [%] | Growth Percent (U251 (CNS Cancer)) [%] | Growth Percent (HCT-116 (Colon Cancer)) [%] | Delta (One Dose Mean Graph) [4] | Range (One Dose Mean Graph) [4] | Mean Growth Percent [4] [%] | further results |
| --- | --- | --- | --- | --- | --- | --- | --- | --- | --- | --- | --- | --- | --- | --- | --- | --- | --- | --- | --- | --- | --- |
| COc1cc(CNC(=O)[C@@H]2CS[C@@]3(C)c4ccccc4C(=O)N23)cc(OC)c1OC [4bJ] | 98.24 | 102.14 | 97.41 | 92.46 | 71.92 | 108.30 | 105.84 | 92.35 | 83.12 | 99.71 | 102.06 | 82.56 | 108.34 | 108.52 | 102.08 | 82.69 | 98.10 | 27.08 | 43.64 | 95.84 | Growth Percent [5]: 98.30%; Growth Percent [6]: 96.92%; Growth Percent (SF-295 (CNS Cancer)): 103.92%; Growth Percent (OVCAR-4 (Ovarian Cancer)): 97.02%; Growth Percent (RXF 393 (Renal Cancer)): 98.72%; Growth Percent [7]: 88.36%; Growth Percent (IGROV1 (Ovarian Cancer)): 106.56%; Growth Percent (SNB-19 (CNS Cancer)): 93.01%; Growth Percent (SR (Leukemia)): 77.35%; Growth Percent (MOLT-4 (Leukemia)): 81.24%; Growth Percent (A498 (Renal Cancer)): 90.55%; Growth Percent (CCRF-CEM (Leukemia)): 90.73%; Growth Percent (SK-MEL-2 (Melanoma)): 89.27%; Growth Percent (HS 578T (Breast Cancer)): 94.07%; Growth Percent (COLO 205 (Colon Cancer)): 105.48% |
| COc1cccc(CNC(=O)[C@@H]2CS[C@H]3c4ccccc4C(=O)N23)c1 [4aE] | 110.14 | 106.50 | 110.85 | 102.11 | 85.13 | 111.45 | 105.05 | 100.28 | 83.51 | 105.81 | 113.91 | 89.79 | 107.40 | 107.90 | 102.72 | 102.42 | 102.32 | 27.47 | 39.82 | 101.56 | Growth Percent [5]: 107.16%; Growth Percent [6]: 99.84%; Growth Percent (SF-295 (CNS Cancer)): 99.74%; Growth Percent (OVCAR-4 (Ovarian Cancer)): 112.11%; Growth Percent (RXF 393 (Renal Cancer)): 101.84%; Growth Percent [7]: 99.32%; Growth Percent (IGROV1 (Ovarian Cancer)): 109.07%; Growth Percent (SNB-19 (CNS Cancer)): 104.75%; Growth Percent (SR (Leukemia)): 84.95%; Growth Percent (MOLT-4 (Leukemia)): 80.83%; Growth Percent (A498 (Renal Cancer)): 92.71%; Growth Percent (CCRF-CEM (Leukemia)): 102.31%; Growth Percent (SK-MEL-2 (Melanoma)): 95.73%; Growth Percent (HS 578T (Breast Cancer)): 98.68%; Growth Percent (COLO 205 (Colon Cancer)): 112.81% |
| COc1ccc(CNC(=O)[C@@H]2CS[C@@]3(C)c4ccccc4C(=O)N23)cc1OC [4bI] | 99.30 | 88.12 | 96.90 | 79.36 | 66.10 | 107.62 | 112.46 | 91.42 | 79.51 | 96.18 | 111.28 | 77.04 | 107.68 | 106.59 | 107.06 | 93.58 | 95.39 | 38.86 | 57.76 | 93.56 | inhibition at 10 µM (K-562 leukaemia cells; Homo sapiens, K562, 10 µM single dose, read-out: inhibition of growth of K-562 leukaemia cells): 34%; Growth Percent [5]: 98.00%; Growth Percent [6]: 82.91%; Growth Percent (SF-295 (CNS Cancer)): 102.29%; Growth Percent (OVCAR-4 (Ovarian Cancer)): 91.78%; Growth Percent (RXF 393 (Renal Cancer)): 104.59%; Growth Percent [7]: 93.76%; Growth Percent (IGROV1 (Ovarian Cancer)): 104.59%; Growth Percent (SNB-19 (CNS Cancer)): 96.85%; Growth Percent (SR (Leukemia)): 75.23%; Growth Percent (MOLT-4 (Leukemia)): 76.47%; Growth Percent (A498 (Renal Cancer)): 83.43%; Growth Percent (CCRF-CEM (Leukemia)): 81.76%; Growth Percent (SK-MEL-2 (Melanoma)): 79.40%; Growth Percent (HS 578T (Breast Cancer)): 94.35%; Growth Percent (COLO 205 (Colon Cancer)): 107.68% |
